From ChEMBL document CHEMBL5052854, “Alpha-5 beta-1 inhibitors” (2021)

The compounds below were run on FG2 (assay: Inhibition of cell adhesion in human FG2 cells assessed as decrease in cell adhesion to matrix incubated for 1 hr by crystal violet staining based assay). Conditions: FG2, 1 h.
Type: functional
Compound `Cc1ccnc(Nc2cccc(C(=O)NCC(=O)NC[C@H](NC(=O)c3c(Cl)cccc3Cl)C(=O)O)c2)c1` has an IC50 of less than 10000 nM. `O=C(CNC(=O)c1cccc(NC2=NCC(F)(F)CN2)c1)NC[C@H](NC(=O)c1c(Cl)cc(-c2ccc3cn[nH]c3c2)cc1Cl)C(=O)O` gave an IC50 of less than 100 nM. In the case of `O=C(CNC(=O)c1cccc(NC2=NCCCN2)c1)NC[C@H](NC(=O)c1c(Cl)cccc1Cl)C(=O)O`, the IC50 is reported as less than 100 nM. Work on `CNc1cccc(C(=O)NCC(=O)NC[C@H](NC(=O)c2c(Cl)cc(-c3ccccc3)cc2Cl)C(=O)O)n1` yielded an IC50 of 1000 nM. In the case of `O=C(CNC(=O)c1cccc(NC2=NCC(O)CN2)c1)NC[C@H](NC(=O)c1c(Cl)cc(-c2ccccc2)cc1Cl)C(=O)O` (stereo partly drawn), the IC50 is reported as less than 100 nM. `N=C(N)Nc1cccc(C(=O)NCC(=O)NC[C@H](NC(=O)c2c(Cl)cc(-c3ccccc3)cc2Cl)C(=O)O)c1` showed an IC50 of less than 100 nM. With `N#C/N=C(\N)Nc1cccc(C(=O)NCC(=O)NC[C@@H](NC(=O)c2c(Cl)cccc2Cl)C(=O)O)c1` the IC50 was less than 10000 nM. For `N=C(N)Nc1ccc2ccn(CCC(=O)NC[C@H](NC(=O)c3c(Cl)cccc3Cl)C(=O)O)c2c1`, the IC50 was less than 10000 nM. For `O=C(CNC(=O)c1cccc(NC2=NCCCN2)c1)NC[C@H](NC(=O)c1c(Cl)cc(-c2ccccc2)cc1Cl)C(=O)O`, the IC50 was less than 100 nM. `C/N=C(\NC)Nc1cccc(C(=O)NCC(=O)NC[C@H](NC(=O)c2c(Cl)cc(-c3ccccc3)cc2Cl)C(=O)O)c1` was tested, and the IC50 was 101 nM. In the case of `N#Cc1cc(NC(=N)N)cc(C(=O)NCC(=O)NC[C@H](NC(=O)c2c(Cl)cc(-c3ccccc3)cc2Cl)C(=O)O)c1`, the IC50 is reported as less than 100 nM. `O=C(CNC(=O)c1cccc(NC2=NCCCS2)c1)NC[C@H](NC(=O)c1c(Cl)cc(-c2ccccc2)cc1Cl)C(=O)O` showed an IC50 of less than 100 nM. `CS(=O)(=O)c1ccc(-c2cc(Cl)c(C(=O)N[C@@H](CNC(=O)CNC(=O)c3cccc(NC(=N)N)c3)C(=O)O)c(Cl)c2)cc1` was tested, and the IC50 was less than 100 nM. `O=C(CNC(=O)c1cccc(NC2=NCC(F)CN2)c1)NC[C@H](NC(=O)c1c(Cl)cc(N2CCS(=O)(=O)CC2)cc1Cl)C(=O)O` (stereo partly drawn) showed an IC50 of less than 100 nM. In the case of `N=C(N)Nc1cccc(C(=O)NCC(=O)NC[C@H](NC(=O)c2c(Cl)cc(N3CCOCC3)cc2Cl)C(=O)O)c1`, the IC50 is reported as less than 100 nM. `N=C(N)Nc1cccc(C(=O)NCC(=O)NC[C@H](NC(=O)c2c(Cl)cccc2Cl)C(=O)O)c1` was tested, and the IC50 was less than 100 nM. `N#C/N=C(\N)Nc1cccc(C(=O)NCC(=O)NC[C@H](NC(=O)c2c(Cl)cccc2Cl)C(=O)O)c1` was tested, and the IC50 was 100 nM. Compound `CN(CC(=O)NC[C@H](NC(=O)c1c(Cl)cc(-c2ccccc2)cc1Cl)C(=O)O)C(=O)c1cccc(NC(=N)N)c1` has an IC50 of 101 nM. In the case of `O=C(CNC(=O)c1cccc(NC2=NCC(F)CN2)c1)NC[C@H](NC(=O)c1c(Cl)cc(-c2ccccc2)cc1Cl)C(=O)O` (stereo partly drawn), the IC50 is reported as less than 100 nM. Work on `Cc1cccc(Cl)c1C(=O)N[C@@H](CNC(=O)CNC(=O)c1cccc(NC(=N)N)c1)C(=O)O` yielded an IC50 of less than 1000 nM. Compound `O=C(CNC(=O)c1cccc(NC2=NCC(F)CN2)c1)NC[C@H](NC(=O)c1c(Cl)cc(N2CCOCC2)cc1Cl)C(=O)O` (stereo partly drawn) has an IC50 of less than 100 nM. `O=C(CNC(=O)c1cccc(NC2=NCC(F)CN2)c1)NC[C@H](NC(=O)c1c(Cl)cc(-c2ccc3cn[nH]c3c2)cc1Cl)C(=O)O` (stereo partly drawn) was tested, and the IC50 was less than 100 nM. In the case of `O=C(CNC(=O)c1cccc(NC2=NCC(F)(F)CN2)c1)NC[C@H](NC(=O)c1c(Cl)cc(-c2ccccc2)cc1Cl)C(=O)O`, the IC50 is reported as less than 100 nM. Work on `O=C(CNC(=O)c1cccc(NC2=NCC(F)(F)CN2)c1)NC[C@H](NC(=O)c1c(Cl)cc(N2CCOCC2)cc1Cl)C(=O)O` yielded an IC50 of less than 100 nM. With `O=C(CNC(=O)c1cccc(NC2=NCCCO2)c1)NC[C@H](NC(=O)c1c(Cl)cc(-c2ccccc2)cc1Cl)C(=O)O` the IC50 was less than 100 nM. Compound `COc1ccc(Nc2cccc(C(=O)NCC(=O)NC[C@H](NC(=O)c3c(Cl)cccc3Cl)C(=O)O)c2)nc1` has an IC50 of less than 50000 nM. Work on `C[C@@H](NC(=O)c1cccc(NC2=NCC(F)CN2)c1)C(=O)NC[C@H](NC(=O)c1c(Cl)cc(-c2ccccc2)cc1Cl)C(=O)O` (stereo partly drawn) yielded an IC50 of 101 nM. `N=C(N)Nc1ccc2c(c1)C(NCC(=O)NC[C@H](NC(=O)c1c(Cl)cccc1Cl)C(=O)O)CCO2` (stereo partly drawn) showed an IC50 of less than 1000 nM.
